Patent US10781444B2, “Functional genomics using CRISPR-Cas systems, compositions, methods, screens and applications thereof” (THE BROAD INSTITUTE, INC., priority 2013, dated 2020)

Legend:
[1] = system: on-target and off-target genomic loci (NF2, NF1, MED12 and other top-ranking genes); assay: Deep sequencing of on-target and off-target loci for allele modification in A375 cells; assay type: cell-based, human; settings: 7 and 14 days post-transduction
Text: Applicants validated top ranking genes from the GeCKO screen individually using 3-5 sgRNAs (FIGS. 28C-E, 38, 39). […] Applicants compared sgRNA and shRNA-mediated protein depletion and PLX resistance using Western blot (FIG. 28D) and cell growth assays (FIG. 28E). […] Additionally, sgRNAs targeting NF1, MED12, CUL3, TADA1, and TADA2B led to a decrease in protein expression and increased resistance to PLX (FIGS. 38, 39).
Screening timeline considerations: After infection, cells are selected with puromycin. For most cell types, 0.5-2 ug/ml puromycin works well, although the minimum dose that kills all cells without any viral transduction should be determined in advance and the minimum concentration should be used for selection. […] As shown in the deep sequencing of the individual target (array) validations from the PLX resistance screen gene hits, genome modification increases over time. For most targets, genome modification was nearly complete after only 7 days.
Sequencing data analysis and indel detection: Off target loci in the human genome were identified for individual spacers using the CRISPR design tool (available at the website tools.genome-engineering.org). On-target and off-target loci were PCR amplified using Herculase II Fusion polymerase (Agilent), normalized, and pooled in equimolar proportions. Pooled libraries were denatured, diluted to a 14 pM concentration and sequenced using the MiSeq Personal Sequencer (Illumina). Sequencing data was demultiplexed using paired barcodes, aligned to reference amplicons, and analyzed for indels as described previously. Indel length analysis was performed by mapping the distance between multiple short reference sequences in individual reads.

human EMX1 locus = assay: Surveyor nuclease assay for genome modification at the human EMX1 locus in HEK 293FT cells; assay type: cell-based; settings: co-expression with EMX1-targeting chimeric crRNA, n=3
Description: Mouse neuro2A (N2A) cell line (ATCC) was maintained with DMEM supplemented with 5% fetal bovine serum (HyClone), 2 mM GlutaMAX (Life Technologies), 100 U/mL penicillin, and 100 μg/mL streptomycin at 37° C. with 5% CO2.
Cells were transfected using Lipofectamine 2000 (Life Technologies) following the manufacturer's recommended protocol. For each well of a 24-well plate a total of 800 ng of plasmids were used.
Genomic DNA was extracted using the QuickExtract DNA extraction kit (Epicentre) following the manufacturer's protocol. […] Extracted genomic DNA was immediately processed or stored at −20° C.
The genomic region surrounding a CRISPR target site for each gene was PCR amplified, and products were purified using QiaQuick Spin Column (Qiagen) following manufacturer's protocol. […] After re-annealing, products were treated with Surveyor nuclease and Surveyor enhancer S (Transgenomics) following the manufacturer's recommended protocol, and analyzed on 4-20% Novex TBE poly-acrylamide gels (Life Technologies). […] Quantification was based on relative band intensities, as a measure of the fraction of cleaved DNA.

| Substance | off-target modification over time [1] | also measured |
| --- | --- | --- |
| MED12_sg2: sgRNA 20 bp sequence CGTCAGCTTCAATCCTGCCA (expressed or natural sequence) | off-target modification also increases with time | – |
| NF2_sg4: sgRNA 20 bp sequence GTACTGCAGTCCAAAGAACC (expressed or natural sequence) | off-target modification also increases with time | – |
| NF2_sg5: sgRNA 20 bp sequence CACAGTGGCCTGGCTCAAAA (expressed or natural sequence) | – | on-target genome modification over time [1]: lower modification that increased by 14 days post-transduction |
| SpCas9n: SpCas9 nickase with aspartate-to-alanine substitution (D10A) in the RuvC I catalytic domain | – | indels at the EMX1 protospacer target (Surveyor assay) (human EMX1 locus): does not generate indels |
